Test results reported in the NIST ThermoML archive (doi:10.1016/j.jct.2015.09.012).
Numbers after ± are expanded uncertainties.

How the values were obtained:
[1] = 298.15 K; 101.33 kPa; Liquid; Vibrating tube method
[2] = molar heat capacity at constant pressure; conditions: Liquid
[3] = molar heat capacity at constant pressure; xn = mol fraction of the nth substance listed; conditions: 100 kPa, Liquid, Large sample (1 g) DSC

CC12CCC(CC1)C(C)(C)O2 [1,3,3-trimethyl-2-oxabicyclo[2.2.2]octane]
Conditions	mass density [kg/m3]
[1]	920.51 ± 0.23

[2]
Conditions	molar heat capacity at constant pressure [J/K/mol]
293.26 K, 101.33 kPa, Small sample (50 mg) DSC	266.9 ± 4.6
303.48 K, 101.33 kPa, Small sample (50 mg) DSC	273 ± 4.7
304.7 K, 100 kPa, Large sample (1 g) DSC	273.3 ± 4.2
309.6 K, 100 kPa, Large sample (1 g) DSC	276.4 ± 4.3
313.71 K, 101.33 kPa, Small sample (50 mg) DSC	279.5 ± 4.8
314.6 K, 100 kPa, Large sample (1 g) DSC	279.5 ± 4.3
319.5 K, 100 kPa, Large sample (1 g) DSC	282.6 ± 4.4
323.93 K, 101.33 kPa, Small sample (50 mg) DSC	285.2 ± 4.9
324.5 K, 100 kPa, Large sample (1 g) DSC	285.1 ± 4.4
334.16 K, 101.33 kPa, Small sample (50 mg) DSC	290.8 ± 5
344.38 K, 101.33 kPa, Small sample (50 mg) DSC	297.7 ± 5.2

CCO [ethanol]
Conditions	mass density [kg/m3]
[1]	785.2 ± 0.12

[2], 100 kPa, Large sample (1 g) DSC
Conditions	molar heat capacity at constant pressure [J/K/mol]
304.7 K	115.3 ± 1.8
309.6 K	117.3 ± 1.8
314.6 K	119.6 ± 1.9
319.5 K	121.9 ± 1.9
324.5 K	124.2 ± 1.9

CC12CCC(CC1)C(C)(C)O2 [1,3,3-trimethyl-2-oxabicyclo[2.2.2]octane] + CCO
molar heat capacity at constant pressure [J/K/mol], [3]
Conditions	304.7 K	309.6 K	314.6 K	319.5 K	324.5 K
x1 = 0.0506	123.9 ± 1.9	126.2 ± 2	128.6 ± 2	131.1 ± 2	133.5 ± 2.1
x1 = 0.099	132 ± 2.1	134.6 ± 2.1	137.1 ± 2.1	139.7 ± 2.2	142.1 ± 2.2
x1 = 0.1999	149 ± 2.3	151.8 ± 2.4	154.6 ± 2.4	157.1 ± 2.4	160 ± 2.5
x1 = 0.3007	166 ± 2.6	169 ± 2.6	171.8 ± 2.7	174.9 ± 2.7	177.7 ± 2.8
x1 = 0.3956	181.7 ± 2.8	184.9 ± 2.9	188.1 ± 2.9	191.1 ± 3	194.1 ± 3
x1 = 0.5002	199.4 ± 3.1	202.5 ± 3.1	205.5 ± 3.2	208.5 ± 3.2	211.3 ± 3.3
x1 = 0.5975	214.3 ± 3.3	217.4 ± 3.4	221.5 ± 3.4	224.5 ± 3.5	227.4 ± 3.5
x1 = 0.7017	231.6 ± 3.6	235.1 ± 3.6	238 ± 3.7	241.2 ± 3.7	244.1 ± 3.8
x1 = 0.8065	247.2 ± 3.8	250.5 ± 3.9	253.6 ± 3.9	256.7 ± 4	259.3 ± 4
x1 = 0.8964	259.8 ± 4	263.7 ± 4.1	267 ± 4.1	269.9 ± 4.2	272.5 ± 4.2
x1 = 0.9501	267 ± 4.1	269.9 ± 4.2	273.4 ± 4.2	275.8 ± 4.3	279 ± 4.3
x1 = 1	273.3 ± 4.2	276.4 ± 4.3	279.5 ± 4.3	282.6 ± 4.4	285.1 ± 4.4

CCO [ethanol] + CC12CCC(CC1)C(C)(C)O2
[3], x2 = 0
Conditions	molar heat capacity at constant pressure [J/K/mol]
304.7 K	115.3 ± 1.8
309.6 K	117.3 ± 1.8
314.6 K	119.6 ± 1.9
319.5 K	121.9 ± 1.9
324.5 K	124.2 ± 1.9
